Source: patent EP0018134B1, “Dihydropyridine derivatives, processes for their preparation and pharmaceutical compositions containing them” (BEECHAM GROUP PLC, priority 1979, dated 1980)

Test system: Fasted Mice
Experiment: Activity on Glucose Tolerance in Fasted Mice
Assay type: in vivo
Details: mice fasted 24 hours, 8 per group; dose 0.2 mmol/kg body weight orally in 1% aqueous carboxymethyl cellulose; glucose 1 g/kg sub-cutaneous 30 minutes later; vehicle control (dose 0) value in the row above; asterisks = significance vs controls
Description: For this assay mice were fasted for 24 hours before the experiment and then randomised so that each treatment group contained 8 mice. The compounds were dosed orally in 1% aqueous carboxymethyl cellulose (10 ml/kg body weight), and 30 minutes later glucose (1 g/kg) was administered by the sub-cutaneous route. Blood samples for glucose analysis were taken from the tail 60 minutes after glucose administration; the results are shown in the table below.
A standard system for indicating the significance of results with respect to the controls (dose = zero mmol/kg) which received the 1% aqueous carboxymethyl cellulose vehicle only, is as follows: • ** P < 0.05 • *** P < 0.01 • **** P < 0.001
In the following Table, column A represents the dose of compound (mmol/kg body weight) and column B represents the blood glucose concentration (mmol/litre) 60 minutes after sub-cutaneous glucose load.

Row | SMILES | blood glucose concentration (mmol/litre) 60 minutes after sub-cutaneous glucose load
1 | CC1CN(C(=Nc2ccccc2)N=c2ccccn2C)CC(C)O1 (stereo not shown) [Example 3, N-(1,2-dihydro-1-methyl-2-pyridylidene)-N'-phenyl-4-(2,6-dimethylmorpholine)-carboxamidine] | 3.48 mmol/L
2 | Cn1ccccc1=NC(=Nc1ccccc1)NCc1ccccc1 [Example 4, N-benzyl-N'-(1,2-dihydro-1-methyl-2-pyridylidene)-N"-phenylguanidine] | 5.36 ** mmol/litre
3 | CCN(CC)C(=Nc1ccccc1)N=c1c(C)cccn1C.I [Example 10, N,N-diethyl-N'-(1,2-dihydro-1,3-dimethyl-2-pyridylidene)-N"-phenylguanidine hydroiodide] | 5.54 *** mmol/litre
4 | Cc1ccn(C)c(=NC(=Nc2ccccc2)N2CCOCC2)c1.I [Example 11, N-(1,2-dihydro-1,4-dimethyl-2-pyridylidene)-N'-phenyl-4-morpholinecarboxamidine hydroiodide] | 4.47 ** mmol/litre
5 | Cn1cc(Br)ccc1=NC(=Nc1ccccc1)N1CCOCC1.I [Example 12, N-(5-bromo-1,2-dihydro-1-methyl-2-pyridylidene)-N'-phenyl-4-morpholinecarboxamidine hydroiodide] | 3.52 *** mmol/litre
6 | COC(=O)c1ccc(=NC(=Nc2ccccc2)N2CCOCC2)n(C)c1.I [Example 13, N-(5-carbomethoxy-1,2-dihydro-1-methyl-2-pyridylidene)-N'-phenyl-4-morpholinecarboxamidine hydroiodide] | 3.36 ** mmol/litre
7 | Cc1ccc(=NC(=Nc2ccccc2)N2CCOCC2)n(C)c1 [Example 14, N-(1,2-Dihydro-1,5-dimethyl-2-pyridylidene)-N'-phenyl-4-morpholinecarboxamidine] | 2.53 **** mmol/litre
